From patent US11884649B2, “IRE1α inhibitors and uses thereof” (The Regents of the University of California, priority 2020, dated 2024)

Legend:
IRE1α* = target: T1, IRE1α* (Homo sapiens, UniProt O75460); experiment: In vitro kinase activity assay (IRE1α kinase inhibition); type: biochemical; details: for IC50: IRE1α kinase inhibition, read-out: IC50 IRE1a; for Ki: read-out: Inhibition of IRE1α*'s kinase activity, Ki
T1 construct: human IRE1α (residues 547-977, IRE1α*) was expressed in SF9 insect cells; His6 (N); made in house; host or cells: Sf9 insect cells (Bac-to-Bac baculovirus)
Procedure: A construct containing the cytosolic kinase and RNase domains of human IRE1α (residues 547-977, IRE1α*) was expressed in SF9 insect cells by using the Bac-to-Bac baculovirus expression system (Invitrogen) with a His6 tag at the N-terminus and purified with a nickel-nitriloacetic acid (Qiagen) column. To generate dP-IRE1α*, we removed basal phosphorylation sites by incubating IRE1α* with λ-PPase (New England Biolabs) at a molar ratio of 5:1 (IRE1α*: λ-PPase) in 50 mM HEPES pH 7.5, 100 mM NaCl, 1 mM MnCl2, 2 mM dithiothreitol (DTT) and 0.01% Brij 35 detergent (v/v) overnight at 4° C. Dephosphorylation was verified through western blotting using a universal phospho-protein detection agent (biotin-pIMAGO (Tymora Analytical Operations, Cat. No.: FL800) and imaged using a streptavidin-linked fluorophore.
In Vitro Kinase Activity Assay
Inhibitors (initial concentration of 10 or 60 μM, three-fold serial dilutions) were incubated with IRE1α* in cleavage buffer (20 mM HEPES, 0.05% Triton X-100 (v/v), 50 mM KCl, 1 mM MgCl2, 1 mM DTT, pH 7.5) for 30 min, followed by incubation with 10 μCi [γ^32P] ATP (3,000 Ci mmol^−1, PerkinElmer) at 23° C. for 3 hours. Samples were then spotted onto glass fiber paper (Easytab-C Glass Fiber Filter Paper, Perkin Elmer) and washed in twice with 0.5% phosphoric acid and autoradiographed using a GE Typhoon FLA 9000 Imager. Blots were quantitated using ImageQuant software. The percent inhibition was quantified by setting the background (no kinase well) as 0 and standardizing to IRE1α* without compound treatment (IRE1α*+DMSO). Dose-response curves were fit using “one-site fit log IC50” parameter using GraphPad Prism analysis software.
Compound Characterization (IC50 IRE1α Kinase Inhibition)

XBP1 mRNA splicing = XBP1 mRNA splicing in INS-1 cells conditionally overexpressing IRE1α (Dox); type: cell-based, rat; details: 3, 10 μM for 1 hour, then Dox (1 μg/mL) for 4 hours
Procedure: (§1) RNA Isolation, Quantitative Real-Time PCR, and Primers
(§2) INS-1 or isogenic IRE1α-overexpressing INS-1 cells were plated onto Poly-D-Lysine coated tissue culture plate and grown for 48 hrs. Inhibitors or DMSO were added to the media and incubated for 1 hour at 37° C. with 5% CO2 prior to addition of ER stress agents or Dox as indicated. RNA was isolated from whole cells using either QIAGEN RNeasy Mini kits or Trizol (Invitrogen) and reverse transcribed as above to obtain total cDNA. Then, XBP-1 primers were used to amplify an XBP-1 amplicon spanning the 26 nt intron from the cDNA samples in a regular 3-step PCR. Thermal cycles were: 5 min at 95° C., 30 cycles of 30 s at 95° C., 30 s at 60° C., and 1 min at 72° C., followed by 72° C. for 15 min, and hold at 4° C. Primers used for XBP-1 mRNA splicing were as follows: sense primer XBP1.3 S (5′ […]-3′ (SEQ ID NO:2)) and antisense primer XBP1.2AS (5′-[…]-3′ (SEQ ID NO:3)). PCR fragments were then digested by PstI, resolved on 3% agarose gels, stained with EtBr and quantified by densitometry using ImageJ (NIH). For standard mRNA detection, generally […] total RNA was reverse transcribed using the QuantiTect Reverse Transcription Kit (QIAGEN). For qPCR, we used SYBR green (QIAGEN) and StepOnePlus Real-Time PCR System (Applied Biosystems). Thermal cycles were: 5 min at 95° C., 40 cycles of 15 sec at 95° C., 30 sec at 60° C. Gene expression levels were normalized to Beta Actin. Primers used for qPCR of RIDD targets were as follows: Beta Actin Fwd: 5′-[…]-3′ (SEQ ID NO:4), Beta Actin Rev: 5′-[…]-3′ (SEQ ID NO:5), Insulin 1 Fwd: 5′-GTCCTCTGGGAGCCCAAG-3′ (SEQ ID NO:6), Insulin 1 Rev: 5′-ACAGAGCCTCCACCAGG-3′ (SEQ ID NO:7), Insulin 2 Fwd: 5′-ATCCTCTGGGAGCCCCGC-3′ (SEQ ID NO:8), Insulin 2 Rev: 5′-AGAGAGCTTCCACCAAG-3′ (SEQ ID NO:9), Blos1 Fwd: 5′-[…]-3′ (SEQ ID NO:10), and Blos1 Rev: 5′-[…]-3′ (SEQ ID NO:11).
(§3) RNA was extracted using Trizol (Invitrogen), DNaseI treated, and cDNA products encompassing the intron amplified by QuantiTect Reverse Transcription Kit (Qiagen). sense Primer rXBP Forward (5′-[…]-3′ (SEQ ID NO:12)) and antisense primer rXBP Reverse (5′-[…]-3′ (SEQ ID NO:13)) were used. PCR fragments were digested by PstI, resolved on 3% agarose gels, stained with EtBr, and quantified by densitometry.
as §3, with “XBP1 splicing for FIGS. 33A-33F: RNA” for “RNA”, “(Invitrogen),” for “(Invitrogen), DNaseI treated, and”, “(Qiagen). Sense” for “(Qiagen). sense”, “rXBP splicing” for “rXBP”

[1] = tested on: RIDD (IRE1α-dependent mRNA decay); experiment: Real-time PCR of RIDD mRNA targets in INS-1 cells overexpressing IRE1α (Dox); type: cell-based, rat; details: 3, 10 μM for 1 hour, then Dox (5 ng/mL) for 24 hours
Procedure: as §1, §2
Real-Time PCR (Q-PCR) used SYBR green and Step OnePlus Real-Time PCR System (Applied Biosystems). Thermal cycles were: 5 min at 95° C., 40 cycles of 15 s at 95° C., 30 s at 60° C. Gene expression levels were normalized to GAPDH. Q-PCR Sense/antisense primers used: Rat GAPDH, 5′-[…]-3′ (SEQ ID NO:14) and 5′-[…]-3′ (SEQ ID NO:15); Rat Ins1, 5′-GTCCTCTGGGAGCCCAAG-3′ (SEQ ID NO:6) and 5′-ACAGAGCCTCCACCAGG-3′ (SEQ ID NO:7); Rat Pdia4, 5′-CGTCTCGCCCTGATTCGT-3′ (SEQ ID NO:16) and 5′-[…]-3′ (SEQ ID NO:17); Rat Blos1, 5′-[…]-3′ (SEQ ID NO:18) and 5′-TGTCCAGTTCGATGCTCCG-3′ (SEQ ID NO:19).
Real-time PCR for FIGS. 34A-34F: Real-Time PCR (Q-PCR) used SYBR green and Step OnePlus Real-Time PCR System (Applied Biosystems). Thermal cycles were: 5 min at 95° C., 40 cycles of 15 s at 95° C., 30 s at 60° C. Gene expression levels were normalized to GAPDH. Q-PCR Sense/antisense primers used: Rat GAPDH, 5′-[…]-3′ (SEQ ID NO:20) and 5′-[…]-3′ (SEQ ID NO:21); Rat Ins1, 5′-GTCCTCTGGGAGCCCAAG-3′ (SEQ ID NO:6) and 5′-ACAGAGCCTCCACCAGG-3′ (SEQ ID NO:7); Rat Ins2, 5′-ATCCTCTGGGAGCCCCGC-3′ (SEQ ID NO:8) and 5′-AGAGAGCTTCCACCAAG-3′ (SEQ ID NO:9); Rat Pdia4, 5′-[…]-3′(SEQ ID NO:22) and 5′-[…]-3′ (SEQ ID NO:23); Rat Blos1, 5′-[…]-3′ (SEQ ID NO:18) and 5′-TGTCCAGTTCGATGCTCCG-3′ (SEQ ID NO:19).

T1 sequence (O75460 547-977): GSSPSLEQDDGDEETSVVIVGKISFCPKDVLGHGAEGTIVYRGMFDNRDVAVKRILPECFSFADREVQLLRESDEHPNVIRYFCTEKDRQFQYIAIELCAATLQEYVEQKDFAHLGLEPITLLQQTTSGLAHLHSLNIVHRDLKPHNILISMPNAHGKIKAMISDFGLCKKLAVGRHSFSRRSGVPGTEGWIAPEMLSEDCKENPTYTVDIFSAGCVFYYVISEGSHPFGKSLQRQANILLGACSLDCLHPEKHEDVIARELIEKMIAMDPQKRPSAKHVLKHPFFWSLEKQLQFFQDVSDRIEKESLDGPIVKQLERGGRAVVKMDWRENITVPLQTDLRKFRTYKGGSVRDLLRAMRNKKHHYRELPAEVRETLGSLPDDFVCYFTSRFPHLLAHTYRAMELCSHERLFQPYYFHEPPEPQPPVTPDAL

Compound | IC50 (IRE1α*) | Ki (IRE1α*) | % spliced XBP1 amplicons (XBP1 mRNA splicing) | RIDD mRNA targets (Ins1, Ins2, Pdia4) [1]
Cc1c(F)c(NS(C)(=O)=O)c2ccccc2c1Oc1ncccc1-c1ccnc(N[C@H]2CCCNC2)n1 [LBC-0000401, (S)—N-(2-fluoro-3-methyl-4-((3-(2-(piperidin-3-ylamino)pyrimidin-4-yl)pyridin-2-yl)oxy)naphthalen-1-yl) methane sulfonamide] | 16 nM | – | – | –
Nc1ccc(Oc2ncccc2-c2ccnc(N[C@H]3CC[C@H](N)CC3)n2)cc1F [compound 1, (1r,4r)-N1-(4-(2-(4-amino-3-fluorophenoxy)pyridin-3-yl)pyrimidin-2-yl) cyclohexane-1,4-diamine] | – | 480 nM | – | –
Cc1cc(NS(=O)(=O)CCC(F)(F)F)c2ccccc2c1Oc1ncccc1-c1ccnc(N[C@@H]2CNC[C@@H](F)C2)n1 [LBC-410, 3,3,3-trifluoro-N-(4-((3-(2-(((3S,5S)-5-fluoropiperidin-3-yl)amino)pyrimidin-4-yl)pyridin-2-yl)oxy)-3-methylnaphthalen-1-yl)propane-1-sulfonamide] | 3.4 nM | – | suppresses XBP1 splicing | block RIDD
Cc1cc(NS(=O)(=O)CC(F)(F)F)c2ccccc2c1Oc1ncccc1-c1ccnc(N[C@H]2CCCNC2)n1 [LBC-0000389, (S)-2,2,2-trifluoro-N-(3-methyl-4-((3-(2-(piperidin-3-ylamino)pyrimidin-4-yl)pyridin-2-yl)oxy)naphthalen-1-yl) ethane sulfonamide] | 8 nM | – | – | –
Cc1c(F)c(NS(=O)(=O)CC(F)(F)F)c2ccccc2c1Oc1ncccc1-c1ccnc(N[C@@H]2CNC[C@@H](F)C2)n1 [LBC-0000399, 2,2,2-trifluoro-N-(2-fluoro-4-((3-(2-(((3S,5S)-5-fluoropiperidin-3-yl)amino)pyrimidin-4-yl)pyridin-2-yl)oxy)-3-methylnaphthalen-1-yl) ethane-1-sulfonamide] | 5.1 nM | – | – | –
Cc1cc(NS(=O)(=O)C2CC2)c2ccccc2c1Oc1ncccc1-c1ccnc(N[C@@H]2CNC[C@@H](F)C2)n1 [LBC-412, N-(4-((3-(2-(((3S,5S)-5-fluoropiperidin-3-yl)amino)pyrimidin-4-yl)pyridin-2-yl)oxy)-3-methylnaphthalen-1-yl) cyclopropane sulfonamide] | 13 nM | – | do not suppress XBP mRNA splicing | block RIDD
Cc1cc(NS(=O)(=O)C2CCC2)c2ccccc2c1Oc1ncccc1-c1ccnc(N[C@@H]2CNC[C@@H](F)C2)n1 [LBC-411, N-(4-((3-(2-(((3S,5S)-5-fluoropiperidin-3-yl)amino)pyrimidin-4-yl)pyridin-2-yl)oxy)-3-methylnaphthalen-1-yl)cyclobutanesulfonamide] | 4.4 nM | – | do not suppress XBP mRNA splicing | block RIDD
Cc1c(F)c(NS(=O)(=O)CC(F)(F)F)c2ccccc2c1Oc1ncccc1-c1ccnc(N[C@H]2CCCNC2)n1 [LBC-0000390, (S)-2,2,2-trifluoro-N-(2-fluoro-3-methyl-4-((3-(2-(piperidin-3-ylamino)pyrimidin-4-yl)pyridin-2-yl)oxy)naphthalen-1-yl) ethane-1-sulfonamide] | 9.5 nM | – | – | –
Cc1cc(NS(=O)(=O)CC2CC2)c2ccccc2c1Oc1ncccc1-c1ccnc(N[C@@H]2CNC[C@@H](F)C2)n1 [LBC-409, 1-cyclopropyl-N-(4-((3-(2-(((3S,5S)-5-fluoropiperidin-3-yl)amino)pyrimidin-4-yl)pyridin-2-yl)oxy)-3-methylnaphthalen-1-yl)methanesulfonamide] | 7.4 nM | – | do not suppress XBP mRNA splicing | block RIDD
N[C@H]1CC[C@H](Nc2nccc(-c3cccnc3Oc3cccc4c(NS(=O)(=O)C5CCC5)cccc34)n2)CC1 [compound 6, N-(5-(3-(2-((1r,4r)-4-aminocyclohexylamino)pyrimidin-4-yl)pyridin-2-yloxy)naphthalen-1-yl) cyclobutanesulfonamide] | – | 98 nM | – | –
O=S(=O)(CC(F)(F)F)Nc1ccc(Oc2ncccc2-c2ccnc(N[C@@H]3CNC[C@@H](F)C3)n2)c2ccccc12 [LBC-0000398, 2,2,2-trifluoro-N-(4-((3-(2-(((3S,5S)-5-fluoropiperidin-3-yl)amino)pyrimidin-4-yl)pyridin-2-yl)oxy)naphthalen-1-yl) ethane-1-sulfonamide] | 7.2 nM | – | – | –
N[C@H]1CC[C@H](Nc2nccc(-c3cccnc3Oc3ccc(NS(=O)(=O)C4CC4)c4ccccc34)n2)CC1 [compound 5, N-(4-(3-(2-((1r,4r)-4-aminocyclohexylamino)pyrimidin-4-yl)pyridin-2-yloxy)naphthalen-1-yl)cyclopropanesulfonamide] | – | 140 nM | – | –
